Activity calls are given as the source filed them. No cut-off for these calls is given here.
Key:
[1] = Cell cycle arrest in human DU145 cells assessed as accumulation at G1 phase at 4 uM after 24 hrs by propidium iodide staining based flow cytometric analysis (reference value: 78.18%); type: functional; conditions: DU-145
[2] = tested on: DU-145; assay: Induction of apoptosis in human DU145 cells assessed as early apoptotic cells at 1.25 uM after 24 hrs by annexin V-FITC/propidium iodide staining based flow cytometric analysis (reference value: 3.11%); type: functional
[3] = tested on: DU-145; assay: Induction of apoptosis in human DU145 cells assessed as dead cells at 2.5 uM after 24 hrs by annexin V-FITC/propidium iodide staining based flow cytometric analysis (reference value: 2.78%); type: functional
[4] = tested on: DU-145; assay: Induction of apoptosis in human DU145 cells assessed as condensed,pyknotic and fragmented nuclei at 1.25 to 5 uM after 48 hrs by DAPI staining based fluorescent microscopic analysis; type: functional, cell-based
[5] = tested on: MDA-MB-231; assay: Anticancer activity against human MDA-MB-231 cells after 48 hrs by MTT assay; type: functional, cell-based; conditions: MDA-MB-231, 48 h
[6] = tested on: DU-145; assay: Induction of apoptosis in human DU145 cells assessed as reduction in viable cells at 1.25 to 5 uM after 24 hrs by phase contrast microscopic analysis; type: functional, cell-based
[7] = tested on: DU-145; assay: Induction of apoptosis in human DU145 cells assessed as viable cells at 2.5 uM after 24 hrs by annexin V-FITC/propidium iodide staining based flow cytometric analysis (reference value: 89.63%); type: functional; conditions: DU-145, 24 h, read-out: Activity
[8] = tested on: DU-145; assay: Induction of apoptosis in human DU145 cells assessed as cell shrinkage at 1.25 to 5 uM after 48 hrs by acridine orange/ethidium bromide staining based fluorescent microscopic analysis; type: functional
[9] = tested on: DU-145; assay: Induction of apoptosis in human DU145 cells assessed as late apoptotic cells at 1.25 uM after 24 hrs by annexin V-FITC/propidium iodide staining based flow cytometric analysis (reference value: 4.48%); type: functional
[10] = tested on: DU-145; assay: Induction of apoptosis in human DU145 cells assessed as late apoptotic cells at 2.5 uM after 24 hrs by annexin V-FITC/propidium iodide staining based flow cytometric analysis (reference value: 4.48%); type: functional
[11] = tested on: DU-145; assay: Induction of apoptosis in human DU145 cells assessed as apoptotic bodies at 1.25 to 5 uM after 24 hrs by phase contrast microscopic analysis; type: functional, cell-based
[12] = tested on: DU-145; assay: Induction of apoptosis in human DU145 cells assessed as ROS production after 24 hrs by carboxy-DCFDA based fluorescence microscopic analysis; type: functional, cell-based
[13] = Anticancer activity against human BT549 cells after 48 hrs by MTT assay; type: functional, cell-based; conditions: BT-549, 48 h
[14] = Cell cycle arrest in human DU145 cells assessed as accumulation at G2/M phase at 4 uM after 24 hrs by propidium iodide staining based flow cytometric analysis (reference value: 16.66%); type: functional; conditions: DU-145
[15] = tested on: DU-145; assay: Induction of apoptosis in human DU145 cells after 24 hrs by annexin V-FITC/propidium iodide staining based flow cytometric analysis; type: functional, cell-based
[16] = Cell cycle arrest in human DU145 cells assessed as accumulation at G2/M phase at 2 uM after 24 hrs by propidium iodide staining based flow cytometric analysis (reference value: 16.66%); type: functional; conditions: DU-145
[17] = tested on: DU-145; assay: Anticlonogenic activity against human DU145 cells assessed as inhibition of colony formation of cells incubated for 24 hrs followed by compound washout measured after 14 days by methylene-blue staining-based assay; type: functional, cell-based
[18] = tested on: DU-145; assay: Induction of apoptosis in human DU145 cells assessed as dead cells at 1.25 uM after 24 hrs by annexin V-FITC/propidium iodide staining based flow cytometric analysis (reference value: 2.78%); type: functional
[19] = tested on: DU-145; assay: Induction of apoptosis in human DU145 cells assessed as membrane blebbing at 1.25 to 5 uM after 48 hrs by acridine orange/ethidium bromide staining based fluorescent microscopic analysis; type: functional, cell-based
[20] = Cytotoxicity against human RWPE1 cells after 48 hrs by MTT assay; type: cell-based; conditions: RWPE-1, 48 h
[21] = tested on: DU-145; assay: Induction of apoptosis in human DU145 cells assessed as viable cells at 5 uM after 24 hrs by annexin V-FITC/propidium iodide staining based flow cytometric analysis (reference value: 89.63%); type: functional; conditions: DU-145, 24 h, read-out: Activity
[22] = tested on: DU-145; assay: Induction of DNA fragmentation in human DU145 cells assessed as smear formation at 1.25 to 2.5 uM after ethidium bromide staining based agarose gel electrophoresis; type: functional, cell-based
[23] = Anticancer activity against human PA1 cells after 48 hrs by MTT assay; type: functional, cell-based; conditions: PA-1, 48 h
[24] = tested on: DU-145; assay: Induction of apoptosis in human DU145 cells assessed as late apoptotic cells at 5 uM after 24 hrs by annexin V-FITC/propidium iodide staining based flow cytometric analysis (reference value: 4.48%); type: functional
[25] = tested on: DU-145; assay: Induction of apoptosis in human DU145 cells assessed as viable cells at 1.25 uM after 24 hrs by annexin V-FITC/propidium iodide staining based flow cytometric analysis (reference value: 89.63%); type: functional; conditions: DU-145, 24 h, read-out: Activity
[26] = tested on: DU-145; assay: Induction of apoptosis in human DU145 cells assessed as apoptotic bodies at 1.25 to 5 uM after 48 hrs by acridine orange/ethidium bromide staining based fluorescent microscopic analysis; type: functional, cell-based
[27] = Cell cycle arrest in human DU145 cells assessed as accumulation at G1 phase at 2 uM after 24 hrs by propidium iodide staining based flow cytometric analysis (reference value: 78.18%); type: functional; conditions: DU-145
[28] = tested on: DU-145; assay: Induction of apoptosis in human DU145 cells assessed as loss of mitochondrial membrane potential at 5 uM after 24 hrs by rhodamine 123 based spectrofluorometric analysis relative to control; type: functional
[29] = tested on: DU-145; assay: Induction of apoptosis in human DU145 cells assessed as cell shrinkage at 1.25 to 5 uM after 24 hrs by phase contrast microscopic analysis; type: functional, cell-based
[30] = tested on: DU-145; assay: Induction of apoptosis in human DU145 cells assessed as early apoptotic cells at 5 uM after 24 hrs by annexin V-FITC/propidium iodide staining based flow cytometric analysis (reference value: 3.11%); type: functional
[31] = tested on: DU-145; assay: Induction of apoptosis in human DU145 cells assessed as early apoptotic cells at 2.5 uM after 24 hrs by annexin V-FITC/propidium iodide staining based flow cytometric analysis (reference value: 3.11%); type: functional
[32] = Cell cycle arrest in human DU145 cells assessed as accumulation at G1 phase at 8 uM after 24 hrs by propidium iodide staining based flow cytometric analysis (reference value: 78.18%); type: functional; conditions: DU-145
[33] = tested on: DU-145; assay: Induction of apoptosis in human DU145 cells assessed as […] deformation at 1.25 to 5 uM after 24 hrs by phase contrast microscopic analysis; type: functional, cell-based
[34] = Anticancer activity against human DU145 cells after 48 hrs by MTT assay; type: functional, cell-based; conditions: DU-145, 48 h
[35] = Selectivity index, ratio of IC50 for human RWPE1 cells to IC50 for human DU145 cells; type: functional
[36] = tested on: DU-145; assay: Induction of apoptosis in human DU145 cells assessed as chromatin condensation at 1.25 to 5 uM after 48 hrs by acridine orange/ethidium bromide staining based fluorescent microscopic analysis; type: functional, cell-based
[37] = Cell cycle arrest in human DU145 cells assessed as accumulation at S phase at 4 uM after 24 hrs by propidium iodide staining based flow cytometric analysis (reference value: 3.39%); type: functional; conditions: DU-145
[38] = Cell cycle arrest in human DU145 cells assessed as accumulation at S phase at 8 uM after 24 hrs by propidium iodide staining based flow cytometric analysis (reference value: 3.39%); type: functional; conditions: DU-145
[39] = Cell cycle arrest in human DU145 cells assessed as accumulation at G2/M phase at 8 uM after 24 hrs by propidium iodide staining based flow cytometric analysis (reference value: 16.66%); type: functional; conditions: DU-145
[40] = tested on: DU-145; assay: Induction of apoptosis in human DU145 cells assessed as dead cells at 5 uM after 24 hrs by annexin V-FITC/propidium iodide staining based flow cytometric analysis (reference value: 2.78%); type: functional
[41] = tested on: DU-145; assay: Induction of DNA fragmentation in human DU145 cells assessed as DNA ladder formation at 5 uM after ethidium bromide staining based agarose gel electrophoresis; type: functional, cell-based
[42] = Cell cycle arrest in human DU145 cells assessed as accumulation at S phase at 2 uM after 24 hrs by propidium iodide staining based flow cytometric analysis (reference value: 3.39%); type: functional; conditions: DU-145
[43] = Anticancer activity against human PC3 cells after 48 hrs by MTT assay; type: functional, cell-based; conditions: PC-3, 48 h

Cc1ccc2c(c1)C(O)(Cc1nnn[nH]1)C(=O)N2Cc1ccccc1 (stereo not drawn)
Activity [1]: 36.3% | Activity [2]: 16.63% | Activity [3]: 3.2% | Activity [4]: Active | IC50 [5]: > 100 µM | Activity [6]: Active | viability at 2.5 µM [7]: 58.1% | Activity [8]: Active | Activity [9]: 8.51% | Activity [10]: 11.6% | Activity [11]: Active | Activity [12]: Dose-dependent effect | IC50 [13]: 91.5 µM | Activity [14]: 52.8% | Activity [15]: Dose-dependent effect | Activity [16]: 39.8% | Activity [17]: Dose-dependent effect | Activity [18]: 6.27% | Activity [19]: Active | IC50 [20]: 20.9 µM | viability at 5 µM [21]: 41.3% | Activity [22]: Active | IC50 [23]: 33.9 µM | Activity [24]: 12.59% | viability at 1.25 µM [25]: 68.6% | Activity [26]: Active | Activity [27]: 44.8% | Activity [28]: 45.4% | Activity [29]: Active | Activity [30]: 44.77% | Activity [31]: 27% | Activity [32]: 17% | Activity [33]: Active | IC50 [34]: 4.26 µM | Ratio IC50 [35]: 5 | Activity [36]: Active | Activity [37]: 6.71% | Activity [38]: 7.34% | Activity [39]: 72.8% | Activity [40]: 1.31% | Activity [41]: Active | Activity [42]: 12.3% | IC50 [43]: 11.7 µM
